Structures can show the parent of a compound that is named as a salt. Where two headings read alike, the source gives them in different places.
Experiments:
[1] = target: T1, SARS-CoV-2 PLpro (nsp3 1564–1878) (Severe acute respiratory syndrome coronavirus 2, UniProt P0DTD1); test: biochemical; parameters: FRET-quenched peptide (Pro3) cleavage by PLpro, 10 min pre-incubation, slope over 20 min, normalised to no-compound control; details: read-out: % of control remaining
[2] = target: T1, SARS-CoV-2 PLpro (nsp3 1564–1878); test: biochemical; parameters: FRET-quenched peptide (Pro3) cleavage by PLpro, 10 min pre-incubation, slope over 20 min, normalised to no-compound control; details: read-out: % of control remaining; remark: listed apart in the source

## CCCNCC(O)COc1ccccc1C(=O)CCc1ccccc1 (stereo not shown) [Propafenone]
[1]; Well no.=1641, low concentration screen
  remaining activity at 1.25 µM: 109%
[2]; Well no.=1641, high concentration screen
  remaining activity at 3.75 µM: 110%

## C1CCc2nnnn2CC1 [Pentylenetetrazole]
[1]; Well no.=1054, low concentration screen
  remaining activity at 1.25 µM: 97.5%
[2]; Well no.=1054, high concentration screen
  remaining activity at 3.75 µM: 99.6%

## CN(C)c1ccc(C(=C2C=CC(=[N+](C)C)C=C2)c2ccc(N(C)C)cc2)cc1 [Crystal violet]
[1]; Well no.=5000, low concentration screen
  remaining activity at 1.25 µM: 101%
[2]; Well no.=5000, high concentration screen
  remaining activity at 3.75 µM: 101%

## O=c1cc(-c2ccc(O)c(O)c2)oc2cc(O)c([C@@H]3O[C@H](CO)[C@@H](O)[C@H](O)[C@H]3O)c(O)c12 [Homoorientin]
[1]; Well no.=3291, low concentration screen
  remaining activity at 1.25 µM: 95.6%
[2]; Well no.=3291, high concentration screen
  remaining activity at 3.75 µM: 100%

## COc1cc(N)c(Cl)cc1C(=O)NC1CCN(Cc2ccccc2)CC1 [Clebopride (malate)]
[1]; Well no.=7335, low concentration screen
  remaining activity at 1.25 µM: 105%
[2]; Well no.=7335, high concentration screen
  remaining activity at 3.75 µM: 102%

## N=C(N)NCCCCN [Agmatine (sulfate)]
[1]; Well no.=7803, low concentration screen
  remaining activity at 1.25 µM: 104%
[2]; Well no.=7803, high concentration screen
  remaining activity at 3.75 µM: 106%

## O=C(O)[C@H]1CCCN1C(=O)CCCCC(=O)N1CCC[C@@H]1C(=O)O [Miridesap]
[1]; Well no.=8078, low concentration screen
  remaining activity at 1.25 µM: 100%
[2]; Well no.=8078, high concentration screen
  remaining activity at 3.75 µM: 97.4%

## CC1(C)[C@@H](O[C@H]2O[C@H](C(=O)O)[C@@H](O)[C@H](O)[C@H]2O[C@@H]2O[C@H](C(=O)O)[C@@H](O)[C@H](O)[C@H]2O)CC[C@]2(C)[C@H]3C(=O)C=C4[C@@H]5C[C@@](C)(C(=O)O)CC[C@]5(C)CC[C@@]4(C)[C@]3(C)CC[C@@H]12 [Glycyrrhizic acid]
[1]; Well no.=5196, low concentration screen
  remaining activity at 1.25 µM: 106%
[2]; Well no.=5196, high concentration screen
  remaining activity at 3.75 µM: 93.8%

## CC1=C(O)C(=O)[C@@H]2O[C@@H]2C1=O [(-)-Terreic acid - (1R,6S)-3-Hydroxy-4-methyl-7-oxabicyclo[4.1.0]hept-3-ene-2,5-dione]
[1]; Well no.=2398, low concentration screen
  remaining activity at 1.25 µM: 99.2%
[2]; Well no.=2398, high concentration screen
  remaining activity at 3.75 µM: 104%

## CCC(C)(C)c1ccc(CC(C)CN2C[C@@H](C)O[C@@H](C)C2)cc1 (stereo partly shown) [Amorolfine HCl]
[1]; Well no.=5337, low concentration screen
  remaining activity at 1.25 µM: 98.1%
[2]; Well no.=5337, high concentration screen
  remaining activity at 3.75 µM: 98.1%

## O=c1ccn([C@@H]2O[C@H](CO)[C@@H](O)[C@@H]2O)c(=O)[nH]1 [1-_beta-_D-_Arabinofuranosylurac_il]
[1]; Well no.=8887, low concentration screen
  remaining activity at 1.25 µM: 95.2%
[2]; Well no.=8887, high concentration screen
  remaining activity at 3.75 µM: 94.3%

## Cc1cc(OCCCc2c3n(c4c(-c5c(C)nn(C)c5C)c(Cl)ccc24)[C@H](C)CN(c2cn(C)c4ccc(C(=O)O)cc24)C3=O)cc(C)c1Cl [VU0661013]
[1]; Well no.=7066, low concentration screen
  remaining activity at 1.25 µM: 105%
[2]; Well no.=7066, high concentration screen
  remaining activity at 3.75 µM: 98.3%

## COC(=O)/C=C/c1cccc(N(Cc2ccc(-c3ccc(N(C)C)cc3)cc2)C(=O)C2CCCCC2)c1 [Fexaramine]
[1]; Well no.=5559, low concentration screen
  remaining activity at 1.25 µM: 97.4%
[2]; Well no.=5559, high concentration screen
  remaining activity at 3.75 µM: 104%

## CCCCCCCCCCCCCCCCCCCCCC(=O)O [Docosanoic acid]
[1]; Well no.=4456, low concentration screen
  remaining activity at 1.25 µM: 100%
[2]; Well no.=4456, high concentration screen
  remaining activity at 3.75 µM: 99.7%

## CCc1cc2c(cc1N1CCC(N3CCOCC3)CC1)C(C)(C)c1[nH]c3cc(C#N)ccc3c1C2=O [CH5424802]
[1]; Well no.=5077, low concentration screen
  remaining activity at 1.25 µM: 104%
[2]; Well no.=5077, high concentration screen
  remaining activity at 3.75 µM: 104%

## CCCCCC(=O)c1c(O)c(Cl)c(OC)c(Cl)c1O [1-(3,5-dichloro-2,6-dihydroxy-4-methoxyphenyl)-1-hexanone]
[1]; Well no.=5626, low concentration screen
  remaining activity at 1.25 µM: 99.3%
[2]; Well no.=5626, high concentration screen
  remaining activity at 3.75 µM: 102%

## OC[C@H](O)C(O)[C@@H](O)CO [L-Arabinitol]
[1]; Well no.=6789, low concentration screen
  remaining activity at 1.25 µM: 93.2%
[2]; Well no.=6789, high concentration screen
  remaining activity at 3.75 µM: 93.7%

## CN1CCC(S(=O)(=O)c2c(Cl)ccc(NC(=O)Nc3cccc(F)c3Cl)c2O)CC1 [CXCR2-IN-1]
[1]; Well no.=8705, low concentration screen
  remaining activity at 1.25 µM: 100%
[2]; Well no.=8705, high concentration screen
  remaining activity at 3.75 µM: 98.8%

## CC1=C2C[C@H]3[C@@H](CC=C4C[C@@H](O)CC[C@@]43C)[C@@H]2CC[C@]12O[C@@H]1C[C@H](C)CN[C@H]1[C@H]2C [Cyclopamine]
[1]; Well no.=3181, low concentration screen
  remaining activity at 1.25 µM: 107%
[2]; Well no.=3181, high concentration screen
  remaining activity at 3.75 µM: 106%

## NC(N)=S [Thiourea]
[1]; Well no.=4097, low concentration screen
  remaining activity at 1.25 µM: 98.1%
[2]; Well no.=4097, high concentration screen
  remaining activity at 3.75 µM: 101%

## CN1CCc2cccc(Cl)c2CC1 [SKF 86466]
[1]; Well no.=1214, low concentration screen
  remaining activity at 1.25 µM: 101%
[2]; Well no.=1214, high concentration screen
  remaining activity at 3.75 µM: 97.9%

## C[C@@H](N)[C@H]1CC[C@H](C(=O)Nc2ccncc2)CC1 [Y-27632 dihydrochloride - trans-4-[(1R)-1-Aminoethyl]-N-4-pyridinylcyclohexanecarboxamide dihydrochloride]
[1]; Well no.=2350, low concentration screen
  remaining activity at 1.25 µM: 105%
[2]; Well no.=2350, high concentration screen
  remaining activity at 3.75 µM: 104%

## CN(C)CCC[C@@]1(c2ccc(F)cc2)OCc2cc(C#N)ccc21 [Escitalopram Oxalate]
[1]; Well no.=5128, low concentration screen
  remaining activity at 1.25 µM: 109%
[2]; Well no.=5128, high concentration screen
  remaining activity at 3.75 µM: 107%

## O=c1ccc2ccc(O)c(O)c2o1 [7,8-dihydroxy-2H-chromen-2-one]
[1]; Well no.=5782, low concentration screen
  remaining activity at 1.25 µM: 105%
[2]; Well no.=5782, high concentration screen
  remaining activity at 3.75 µM: 108%

## Cc1ccc(OCCSc2ncccn2)c(Br)c1 [2-{[2-(2-bromo-4-methylphenoxy)ethyl]sulfanyl}pyrimidine]
[1]; Well no.=6035, low concentration screen
  remaining activity at 1.25 µM: 95.4%
[2]; Well no.=6035, high concentration screen
  remaining activity at 3.75 µM: 94.6%

## C[C@H]1CCC[C@H](O)CCCCCc2cc(O)cc(O)c2C(=O)O1
[1]; Well no.=3340, low concentration screen
  remaining activity at 1.25 µM: 91.6%
[2]; Well no.=3340, high concentration screen
  remaining activity at 3.75 µM: 94%

## Cc1ccc(C(=O)COC(=O)c2cccc(NC(=O)c3ccc([N+](=O)[O-])cc3[N+](=O)[O-])c2)cc1 [FM19G11]
[1]; Well no.=5606, low concentration screen
  remaining activity at 1.25 µM: 93.7%
[2]; Well no.=5606, high concentration screen
  remaining activity at 3.75 µM: 96.9%

## CCN(CC)Cc1cc(Nc2ccnc3cc(Cl)ccc23)ccc1O [Amodiaquine dihydrochloride dihydrate]
[1]; Well no.=8396, low concentration screen
  remaining activity at 1.25 µM: 97.5%
[2]; Well no.=8396, high concentration screen
  remaining activity at 3.75 µM: 106%

## C[C@H]1C[C@@H]2[C@H]([C@@H](O)C[C@@]3(C)[C@H]2CC[C@]3(O)C(=O)CO)[C@@]2(C)C=CC(=O)C=C12 [Methylprednisolone]
[1]; Well no.=1957, low concentration screen
  remaining activity at 1.25 µM: 100%
[1]; Well no.=6179, low concentration screen
  remaining activity at 1.25 µM: 95.4%
[2]; Well no.=1957, high concentration screen
  remaining activity at 3.75 µM: 99.7%
[2]; Well no.=6179, high concentration screen
  remaining activity at 3.75 µM: 95.1%

## CC(C)(C)S(=O)(=O)c1cc2c(Nc3ccc4scnc4c3)ncnc2cc1OCCO [RIP2 kinase inhibitor 1]
[1]; Well no.=6932, low concentration screen
  remaining activity at 1.25 µM: 102%
[2]; Well no.=6932, high concentration screen
  remaining activity at 3.75 µM: 105%

## Clc1ccc(Nc2nnc(Cc3ccncc3)c3ccccc23)cc1 [Vatalanib]
[1]; Well no.=1619, low concentration screen
  remaining activity at 1.25 µM: 97%
[2]; Well no.=1619, high concentration screen
  remaining activity at 3.75 µM: 95.2%

## C=C(C)[C@@H]1[C@H]2OC(=O)[C@@H]1[C@]1(O)C[C@H]3O[C@]34C(=O)O[C@H]2[C@]14C [Picrotoxinin]
[1]
  remaining activity at 1.25 µM: 101%
[2]
  remaining activity at 3.75 µM: 101%

## CC(C)c1nc(N(C)S(C)(=O)=O)nc(-c2ccc(F)cc2)c1/C=C/[C@@H](O)C[C@@H](O)CC(=O)O [Rosuvastatin Calcium]
[1]; Well no.=8240, low concentration screen
  remaining activity at 1.25 µM: 96.8%
[2]; Well no.=8240, high concentration screen
  remaining activity at 3.75 µM: 93.8%

## O=C(O)c1cc(N(Cc2ccccc2O)Cc2cc(O)ccc2O)ccc1O [Lavendustin A]
[1]; Well no.=3837, low concentration screen
  remaining activity at 1.25 µM: 90.9%
[2]; Well no.=3837, high concentration screen
  remaining activity at 3.75 µM: 94.6%

From paper PMC8286840, “Identifying SARS-CoV-2 antiviral compounds by screening for small molecule inhibitors of Nsp3 papain-like protease” (Biochemical Journal, 2021)
